Source: PubChem BioAssay AID1963839 (Molecular Pharmacology Branch, DTP, NCI, 2024)

Tested on: 817829-284-R-J1-PDC complex spheroid viability
Assay: Anticancer human tumor 817829-284-R-J1-PDC patient-derived colon adenocarcinoma cell line growth inhibition [POLQ]
Settings: for IC50: curve of first compound; for viability, T/C: stronger effect = lower value
Method in brief: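 PDC + HUVEC + MSC complex spheroids; POLQ inhibitors ± partner drugs; top conc. at/near clinical Cmax, else 10 microM (SN-38 1 microM), half-log dilutions; 37 degrees C, 5% CO2.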

[1] = second compound 0.0316 µM, first compound 0.0316 µM
[2] = second compound 0.0316 µM, first compound 0.1 µM
[3] = second compound 0.0316 µM, first compound 0.316 µM
[4] = second compound 0.0316 µM, first compound 1 µM
[5] = second compound 0.1 µM, first compound 0.0316 µM
[6] = second compound 0.1 µM, first compound 0.1 µM
[7] = second compound 0.1 µM, first compound 0.316 µM
[8] = second compound 0.1 µM, first compound 1 µM
[9] = second compound 0.316 µM, first compound 0.0316 µM
[10] = second compound 0.316 µM, first compound 0.1 µM
[11] = second compound 0.316 µM, first compound 0.316 µM
[12] = second compound 0.316 µM, first compound 1 µM
[13] = second compound 1 µM, first compound 0.0316 µM
[14] = second compound 1 µM, first compound 0.1 µM
[15] = second compound 1 µM, first compound 0.316 µM
[16] = second compound 1 µM, first compound 1 µM
[17] = second compound 3.16 µM, first compound 0.0316 µM
[18] = second compound 3.16 µM, first compound 0.1 µM
[19] = second compound 3.16 µM, first compound 0.316 µM
[20] = second compound 3.16 µM, first compound 1 µM
[21] = second compound 10 µM, first compound 0.0316 µM
[22] = second compound 10 µM, first compound 0.1 µM
[23] = second compound 10 µM, first compound 0.316 µM
[24] = second compound 10 µM, first compound 1 µM
[25] = second compound 0.0316 µM, first compound 3.16 µM
[26] = second compound 0.0316 µM, first compound 10 µM
[27] = second compound 0.1 µM, first compound 3.16 µM
[28] = second compound 0.1 µM, first compound 10 µM
[29] = second compound 0.316 µM, first compound 3.16 µM
[30] = second compound 0.316 µM, first compound 10 µM
[31] = second compound 1 µM, first compound 3.16 µM
[32] = second compound 1 µM, first compound 10 µM
[33] = second compound 3.16 µM, first compound 3.16 µM
[34] = second compound 3.16 µM, first compound 10 µM
[35] = second compound 10 µM, first compound 3.16 µM
[36] = second compound 10 µM, first compound 10 µM
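Further: spheroids exposed to compounds for 7 days.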
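Wherever viability, T/C is given: 100% = DMSO vehicle-treated spheroids.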

## COc1cccc(OCCCN)c1-c1cc(Nc2cnc(C#N)cn2)n[nH]1 + Nc1ccc(C#CCN(C(=O)Cc2ncc(C(F)(F)F)cc2C(F)(F)F)c2ccc(F)cc2)nn1
Second compound 0.0316 µM
  IC50: 5.44 nM
Second compound 0.1 µM
  IC50: 5.2 nM
Second compound 0.316 µM
  IC50: 5.7 nM
Second compound 1 µM
  IC50: 5.69 nM
Second compound 3.16 µM
  IC50: 5.41 nM
Second compound 10 µM
  IC50: 5.7 nM
Second compound 0.0316 µM, first compound 0.00316 µM
  viability, T/C: 82.4%
Second compound 0.0316 µM, first compound 0.01 µM
  viability, T/C: 13.8%
[1]
  viability, T/C: 5.45%
[2]
  viability, T/C: 4.83%
[3]
  viability, T/C: 4.44%
[4]
  viability, T/C: 3.65%
Second compound 0.1 µM, first compound 0.00316 µM
  viability, T/C: 77.1%
Second compound 0.1 µM, first compound 0.01 µM
  viability, T/C: 14.6%
[5]
  viability, T/C: 4.6%
[6]
  viability, T/C: 5.23%
[7]
  viability, T/C: 3.56%
[8]
  viability, T/C: 3%
Second compound 0.316 µM, first compound 0.00316 µM
  viability, T/C: 87%
Second compound 0.316 µM, first compound 0.01 µM
  viability, T/C: 14.7%
[9]
  viability, T/C: 4.16%
[10]
  viability, T/C: 5.93%
[11]
  viability, T/C: 4.07%
[12]
  viability, T/C: 3.09%
Second compound 1 µM, first compound 0.00316 µM
  viability, T/C: 84.7%
Second compound 1 µM, first compound 0.01 µM
  viability, T/C: 16.7%
[13]
  viability, T/C: 5.79%
[14]
  viability, T/C: 4.2%
[15]
  viability, T/C: 4.04%
[16]
  viability, T/C: 2.8%
Second compound 3.16 µM, first compound 0.00316 µM
  viability, T/C: 84%
Second compound 3.16 µM, first compound 0.01 µM
  viability, T/C: 11.2%
[17]
  viability, T/C: 5.75%
[18]
  viability, T/C: 5.62%
[19]
  viability, T/C: 3.65%
[20]
  viability, T/C: 3.11%
Second compound 10 µM, first compound 0.00316 µM
  viability, T/C: 87.2%
Second compound 10 µM, first compound 0.01 µM
  viability, T/C: 14.5%
[21]
  viability, T/C: 5.81%
[22]
  viability, T/C: 3.93%
[23]
  viability, T/C: 4.01%
[24]
  viability, T/C: 3.39%

## CCCS(=O)(=O)Nc1ccc(F)c(C(=O)c2c[nH]c3ncc(-c4ccc(Cl)cc4)cc23)c1F + Cc1cccc(N(C)C(=O)C2C(O)CCN2c2nc(C)cc(C(F)(F)F)c2C#N)c1
Second compound 0.0316 µM
  IC50: 2980 nM
Second compound 0.1 µM
  IC50: 4450 nM
Second compound 0.316 µM
  IC50: 4070 nM
Second compound 1 µM
  IC50: 3710 nM
Second compound 3.16 µM
  IC50: 3810 nM
Second compound 10 µM
  IC50: 2390 nM
[1]
  viability, T/C: 82.6%
[2]
  viability, T/C: 75.3%
[3]
  viability, T/C: 81.4%
[4]
  viability, T/C: 84.3%
[25]
  viability, T/C: 48.3%
[26]
  viability, T/C: 6.4%
[5]
  viability, T/C: 86.5%
[6]
  viability, T/C: 83.7%
[7]
  viability, T/C: 81.9%
[8]
  viability, T/C: 80.8%
[27]
  viability, T/C: 68.1%
[28]
  viability, T/C: 8.39%
[9]
  viability, T/C: 94.9%
[10]
  viability, T/C: 89.6%
[11]
  viability, T/C: 76.4%
[12]
  viability, T/C: 81.8%
[29]
  viability, T/C: 63.8%
[30]
  viability, T/C: 6.86%
[13]
  viability, T/C: 103%
[14]
  viability, T/C: 91.9%
[15]
  viability, T/C: 90.8%
[16]
  viability, T/C: 80.5%
[31]
  viability, T/C: 58.2%
[32]
  viability, T/C: 6.61%
[17]
  viability, T/C: 104%
[18]
  viability, T/C: 97%
[19]
  viability, T/C: 83.3%
[20]
  viability, T/C: 74.3%
[33]
  viability, T/C: 66.5%
[34]
  viability, T/C: 8.21%
[21]
  viability, T/C: 85.7%
[22]
  viability, T/C: 76.5%
[23]
  viability, T/C: 66.5%
[24]
  viability, T/C: 64.2%
[35]
  viability, T/C: 49.5%
[36]
  viability, T/C: 4.19%

## COc1cc(C2c3cc4c(cc3C(OC3OC5COC(C)OC5C(O)C3O)C3COC(=O)C23)OCO4)cc(OC)c1O (stereo unspecified) + Nc1ccc(C#CCN(C(=O)Cc2ncc(C(F)(F)F)cc2C(F)(F)F)c2ccc(F)cc2)nn1
Second compound 0.0316 µM
  IC50: 68.1 nM
Second compound 0.1 µM
  IC50: 99.6 nM
Second compound 0.316 µM
  IC50: 76.2 nM
Second compound 1 µM
  IC50: 129 nM
Second compound 3.16 µM
  IC50: 83.6 nM
Second compound 10 µM
  IC50: 73.7 nM
[1]
  viability, T/C: 67.2%
[2]
  viability, T/C: 43.9%
[3]
  viability, T/C: 15.4%
[4]
  viability, T/C: 24.5%
[25]
  viability, T/C: 13.7%
[26]
  viability, T/C: 6.78%
[5]
  viability, T/C: 100%
[6]
  viability, T/C: 50.4%
[7]
  viability, T/C: 18%
[8]
  viability, T/C: 20.8%
[27]
  viability, T/C: 12.4%
[28]
  viability, T/C: 7.13%
[9]
  viability, T/C: 88%
[10]
  viability, T/C: 38.7%
[11]
  viability, T/C: 15.3%
[12]
  viability, T/C: 24.4%
[29]
  viability, T/C: 13.6%
[30]
  viability, T/C: 4.94%
[13]
  viability, T/C: 79.9%
[14]
  viability, T/C: 59.5%
[15]
  viability, T/C: 16.7%
[16]
  viability, T/C: 19.8%
[31]
  viability, T/C: 11.6%
[32]
  viability, T/C: 5.6%
[17]
  viability, T/C: 74.6%
[18]
  viability, T/C: 47.3%
[19]
  viability, T/C: 17.4%
[20]
  viability, T/C: 22.4%
[33]
  viability, T/C: 12%
[34]
  viability, T/C: 6.2%
[21]
  viability, T/C: 71.9%
[22]
  viability, T/C: 42.7%
[23]
  viability, T/C: 18.8%
[24]
  viability, T/C: 13.1%
[35]
  viability, T/C: 10.7%
[36]
  viability, T/C: 5.77%
